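Compound exposure: 48 hours, 5 concentrations, 96-well plates. The concentration for 50% growth inhibition is given as GI50.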 The source made the active and inactive calls. No stated cut-off is given here; in the data, active = GI50 up to about 1.1 µM and inactive = higher.
What was measured:
Experiment in all cases: NCI-60 cell line screen, 48 h
SF-539 = tested on: SF-539
PC-3 = tested on: PC-3
HCT-116 = tested on: HCT-116
UACC-257 = tested on: UACC-257
TK-10 = tested on: TK-10
HOP-62 = tested on: HOP-62
K562 = tested on: K562
MDA-MB-231 = tested on: MDA-MB-231
IGROV-1 = tested on: IGROV-1
SK-MEL-5 = tested on: SK-MEL-5
MOLT-4 = tested on: MOLT-4
EKVX = tested on: EKVX
ACHN = tested on: ACHN
SNB-19 = tested on: SNB-19
U-251 = tested on: U-251
UO-31 = tested on: UO-31
SW-620 = tested on: SW-620
SK-MEL-2 = tested on: SK-MEL-2
HT-29 = tested on: HT-29
OVCAR-8 = tested on: OVCAR-8
CCRF-CEM = tested on: CCRF-CEM
RXF 393 = tested on: RXF 393
T47D = tested on: T47D
SNB-75 = tested on: SNB-75
A549 = tested on: A549
M14 = tested on: M14
UACC-62 = tested on: UACC-62
LOX IMVI = tested on: LOX IMVI
HCC 2998 = tested on: HCC 2998
DU-145 = tested on: DU-145
SR = tested on: SR
MDA-MB-435 = tested on: MDA-MB-435
OVCAR-3 = tested on: OVCAR-3
SN12C = tested on: SN12C
HL-60 = tested on: HL-60
SF-295 = tested on: SF-295
COLO 205 = tested on: COLO 205
NCI-H226 = tested on: NCI-H226
KM12 = tested on: KM12
SK-OV-3 = tested on: SK-OV-3
CAKI-1 = tested on: CAKI-1
NCI-H23 = tested on: NCI-H23
RPMI-8226 = tested on: RPMI-8226
Hs-578T = tested on: Hs-578T
HOP-92 = tested on: HOP-92
HCT-15 = tested on: HCT-15
OVCAR-4 = tested on: OVCAR-4
NCI-H522 = tested on: NCI-H522
MDA-N = tested on: MDA-N
OVCAR-5 = tested on: OVCAR-5
786-0 = tested on: 786-0
SK-MEL-28 = tested on: SK-MEL-28
NCI/ADR-RES = tested on: NCI/ADR-RES
SF-268 = tested on: SF-268
MCF7 = tested on: MCF7
BT-549 = tested on: BT-549
Malme-3M = tested on: Malme-3M
A498 = tested on: A498
NCI-H460 = tested on: NCI-H460

Measured: GI50

CC1(C)CN=C(Nc2ccc(F)c(F)c2)S1
inactive: SF-539 > 100 µM | PC-3 > 100 µM | HCT-116 > 100 µM | UACC-257 > 100 µM | TK-10 > 100 µM | HOP-62 > 100 µM | K562 > 100 µM | MDA-MB-231 > 100 µM | IGROV-1 > 100 µM | SK-MEL-5 > 100 µM | MOLT-4 > 100 µM | EKVX > 100 µM | ACHN > 100 µM | SNB-19 > 100 µM | U-251 > 100 µM | UO-31 > 100 µM | SW-620 > 100 µM | SK-MEL-2 > 100 µM | HT-29 > 100 µM | OVCAR-8 > 100 µM | CCRF-CEM > 100 µM | RXF 393 > 100 µM | T47D > 100 µM | SNB-75 > 100 µM | A549 > 100 µM | M14 > 100 µM | UACC-62 > 100 µM | LOX IMVI > 100 µM | HCC 2998 > 100 µM | DU-145 > 100 µM | SR > 100 µM | MDA-MB-435 > 100 µM | OVCAR-3 > 100 µM | SN12C > 100 µM | HL-60 > 100 µM | SF-295 > 100 µM | COLO 205 > 100 µM | NCI-H226 > 100 µM | KM12 > 100 µM | SK-OV-3 > 100 µM | CAKI-1 > 100 µM | NCI-H23 > 100 µM | RPMI-8226 > 100 µM | Hs-578T > 100 µM | HOP-92 31.4 µM | OVCAR-4 > 100 µM | NCI-H522 > 100 µM | MDA-N > 100 µM | OVCAR-5 > 100 µM | 786-0 > 100 µM | SK-MEL-28 > 100 µM | NCI/ADR-RES > 100 µM | SF-268 > 100 µM | MCF7 > 100 µM | BT-549 > 100 µM | Malme-3M > 100 µM
> 100 µM: HCT-15

C[N+](C)(C)[BH-](Br)C(O)O (stereo unspecified)
> 100 µM: HCT-15
inactive: A498 > 100 µM | SF-539 > 100 µM | PC-3 > 100 µM | HCT-116 > 100 µM | UACC-257 > 100 µM | TK-10 > 100 µM | HOP-62 > 100 µM | K562 > 100 µM | MDA-MB-231 > 100 µM | IGROV-1 > 100 µM | SK-MEL-5 > 100 µM | MOLT-4 > 100 µM | EKVX > 100 µM | ACHN > 100 µM | SNB-19 > 100 µM | U-251 > 100 µM | UO-31 > 100 µM | NCI-H460 > 100 µM | SW-620 > 100 µM | SK-MEL-2 > 100 µM | HT-29 > 100 µM | CCRF-CEM > 100 µM | RXF 393 > 100 µM | T47D > 100 µM | SNB-75 40.6 µM | A549 > 100 µM | M14 > 100 µM | UACC-62 > 100 µM | LOX IMVI > 100 µM | HCC 2998 > 100 µM | DU-145 > 100 µM | SR > 100 µM | MDA-MB-435 > 100 µM | OVCAR-3 > 100 µM | SN12C > 100 µM | HL-60 > 100 µM | SF-295 > 100 µM | COLO 205 > 100 µM | KM12 > 100 µM | CAKI-1 > 100 µM | NCI-H23 > 100 µM | Hs-578T > 100 µM | HOP-92 > 100 µM | OVCAR-4 > 100 µM | NCI-H522 > 100 µM | MDA-N > 100 µM | OVCAR-5 > 100 µM | 786-0 > 100 µM | SK-MEL-28 > 100 µM | NCI/ADR-RES > 100 µM | SF-268 > 100 µM | MCF7 > 100 µM | BT-549 > 100 µM

— ChEMBL document CHEMBL1201862, “PubChem BioAssay data set” (2004)
